Source: publication PMC11868579 (Nature Communications, 2024)
“And” between values parts separate entries of the source, which are not always exact repeats. Identical values can stand only once.

Tests used:
eIF4E:eIF4G interaction = eIF4E:eIF4G interaction (Homo sapiens, UniProt P06730); assay: Electro-chemiluminescent binding assay, eIF4E:eIF4G, SW620 cell lysates; type: biochemical; set-up: endogenous in cells; host or cells: SW620 cells (lysates); conditions: for eIF4G:eIF4E luminescence signal normalised to DMSO control: SW620, Expt 1, Expt 2, Fig. 4d
Experimental: This assay uses plates with carbon electrodes and electro-chemiluminescent labels (SULFO-TAGs) that are conjugated to detection antibodies. When an electric current is applied to the plate electrodes the SULFO-TAG labels will emit light that is measured to quantify analytes in the sample. […] The plates were washed with 3 ×150 µl/well MSD wash buffer (cat#R61AA-1; 0.2% Tween-20 in PBS), then blocked with 150 µl/well block buffer (MSD, cat# R93AA) for 1 h. […] The incubated plates were washed 4x in 150 µl in MSD wash buffer and were re-blocked by the addition of 25 μl of blocking buffer containing a 1:500 dilution of the secondary antibody and incubated for 1 hr at RT with rotational shaking. […] Plates were then washed again 4x in 150 µl in MSD wash buffer and 25 μl of a 1:50 dilution of Goat anti-rabbit Sulfo-Tag (MSD, Cat# R32AB-1) in MSD blocking buffer was added and the plates incubated for 1 h at RT with rotational shaking. After a final wash step, 150 μl Read Buffer T4X (MSD, Cat# R92-TC2) was added and the plate read using the MSD QuickPlex SQ 120 plate reader.

eIF4E W73F = biological target: T1, eIF4E W73F (Homo sapiens, UniProt P06730, W73F); assay: CETSA in eIF4E-dTAG model expressing W73F eIF4E; type: cell-based; conditions: intact cells
T1 construct: expressed in transfected cells; host or cells: H1299 eIF4E-dTAG clone C3-1, eIF4E-dTAG depleted with dTAG^V-1 before compound
Experimental: Cells (1.5 × 10^6 cells) were plated into 75 cm^2 flasks and allowed to attached overnight. After treatment with compound 4 or 5 for 6 h, they were harvested by trypsinisation and washed x2 in ice cold PBS. Cells were resuspended in 1 ml of cold PBS supplemented with protease and phosphatase inhibitors (Fisher Scientific, cat#1861281). Resuspended cells were divided into 100 μl aliquots and centrifuged at 300 x g for 3 min at 4 °C. Following centrifugation, 75μl of supernatant was removed and cells resuspended in the remaining volume. Cell suspensions were heated at 40.9, 43.7, 48.1, 52.9, 57.6, 62.4, 67.2, 71.9, 76.3 and 79.1 °C for 3 mins followed by cooling at 20 °C for 3 min[25]. Suspensions were freeze-thawed twice using liquid nitrogen. Soluble fractions were separated from cell debris by centrifuging at 20,000 x g for 30 min at 4 °C. Samples were then analysed by Western Blot.
Supplementary Fig. 18. Comparison of compound 4 binding to wild-type or […]
Cells were treated with dTAGV-1 (1 μM) for 16 hr. Compound 4 (10 μM) or compound 5 (10 μM) was then added for 6 hrs.
Vi nculin was used for loading control. Blots are from one biological repeat. b […]
was used as loading control . c Cells were treated with dTAGV -1 (1 μM) for 16 hr.
Compound 4 (50 μM) or compound 5 (50 μM) was then added for 6 hrs. […]
following incubation at 48.1 °C. Vinculin was used for loaing control. All blots are […]

[1] = Aqueous kinetic solubility at pH 7.5 by qNMR; type: physicochemical; conditions: 50 mM HEPES, 100 mM NaCl, 1 mM TCEP
Experimental: Measurement of aqueous kinetic solubility at pH 7.5
Solubility was measured in 50 mM HEPES, 100 mM NaCl (15% D2O, 85% H2O) in the presence of 1 mM TCEP at pH 7.5. Samples were prepared at 50 mM in DMSO-d6, diluted x 50 into buffer affording nominal concentrations of 1 mM and analysed by 1H quantitative NMR. Spectra were acquired at 300K in 5 mm tubes on a 400 MHz Bruker Avance III HD spectrometer equipped with a BBO-F probe using water suppression (presat/Watergate). A 5 mM sample of 4-hydroxybenzoic acid was used

[2] = tested on: eIF4E WT or mutant expression; assay: Immunoblot of eIF4E rescue construct expression; type: cell-based, human; conditions: n=3
Description: Supplementary Fig. 17. Transfection of wild type eIF4E or a series of mutants […]
clone. a Scheme of the workflow to generate genetic rescue models by expression of wild type (WT) eIF4E or mutant eIF4E in the dTAG eIF4E CRISPR clones (Created in BioRender. Powers, M. (2024) https://BioRender.com/q02f176). b Representative […]
replicates). Vinculin was used as a loading control. The immunoblots were cropped to […]
(1 picture or pasted object on this page, not shown here) […]
aid interpretation of the data, original immunoblot images for all repeats are available in the Supplementary Source Data. d Quantification of MCL1 immunoblot signals using Image J. Results are expressed as % MCL-1 normalized to vinculin (mean ± SEM from (c) plus 2 additional biological replicates (see Supplementary Source Data).
Significance (p<0.05) was determined using a one sample t-test (two-tailed) comparing treatment with the control from each cell line. Significance was observed […]
p=0.0153) expressing cells. p values are denoted as *p<0.05, **p<0.01, ***p<0.001, […]
and f 16 hr from (c), using Image J. A one sample t -test was performed for each cell treatment compared to their control and found no significant differences for either tim e point (p>0.05) . Comparison of the control conditions for expression of each mutant with the overexpressed WT using an ordinary one-way ANOVA with Tukey multiple comparisons test found all mutants p<0.001 except S209A (p=0.0337) at 6 hr and all

Chain of eIF4E:eIF4G interaction (P06730 2-217 limits assumed): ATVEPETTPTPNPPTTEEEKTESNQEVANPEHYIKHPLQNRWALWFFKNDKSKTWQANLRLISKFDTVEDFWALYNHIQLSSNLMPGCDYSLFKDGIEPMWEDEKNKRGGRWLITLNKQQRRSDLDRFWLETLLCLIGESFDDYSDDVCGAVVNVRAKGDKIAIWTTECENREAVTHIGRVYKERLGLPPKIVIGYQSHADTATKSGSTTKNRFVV
T1 sequence (P06730 whole entry W73F): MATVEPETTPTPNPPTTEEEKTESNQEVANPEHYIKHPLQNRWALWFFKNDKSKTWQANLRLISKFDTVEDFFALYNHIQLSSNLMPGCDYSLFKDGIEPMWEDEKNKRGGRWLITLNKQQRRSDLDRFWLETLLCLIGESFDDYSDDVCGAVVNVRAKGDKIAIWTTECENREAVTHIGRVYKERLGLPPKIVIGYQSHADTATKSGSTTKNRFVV

In the case of `CC[C@H](O[C@H](C)CO)c1ccc(-c2ccccc2F)cc1NCCO` [Compound 4], the “eIF4G:eIF4E luminescence signal normalised to DMSO control” value (eIF4E:eIF4G interaction; 0.4 μM) is reported as 89% and 92.6%, the “eIF4G:eIF4E luminescence signal normalised to DMSO control” value (eIF4E:eIF4G interaction; 4 μM) is reported as 47.4% and 46.9% and the “eIF4G:eIF4E luminescence signal normalised to DMSO control” value (eIF4E:eIF4G interaction; 12 μM) is reported as 33.5% and 31.6%. For the same compound, the “eIF4G:eIF4E luminescence signal normalised to DMSO control” value (eIF4E:eIF4G interaction; 40 μM) was 20.4% and 20.8%, the “eIF4G:eIF4E SW620, luminescence ratio normalised to DMSO control” value (eIF4E:eIF4G interaction; SW620 lysates, 100 µM, 30 min, single experiments Expt 1, Expt 2) was 23% and 19% and the EC50 (eIF4E:eIF4G interaction; read-out: EC50, eIF4G binding to eIF4E, SW620 cell lysates, 30 min) was 2600 nM. For the same compound, the “thermal stabilisation of W73F eIF4E” value (eIF4E W73F) was “destabilised, rather than stabilised” and the “Aqueous kinetic solubility (pH7.5)” value [1] was 400 µM.
In the case of `CC[C@H](C(=O)N1CCCC[C@H]1C(=O)O[C@H](CCc1ccc(OC)c(OC)c1)c1ccccc1OCC(=O)NCCCCCCC(=O)N[C@H](C(=O)N1C[C@H](O)C[C@H]1C(=O)N[C@@H](C)c1ccc(-c2scnc2C)cc1)C(C)(C)C)c1cc(OC)c(OC)c(OC)c1` [dTAG^V-1], the “Quantification of eIF4E (6 hr) normalised to WT expression, Average” value ([2]; C3-1, 0.5 uM) is reported as 0.00, the “Quantification of eIF4E (16 hr) normalised to WT expression, Average” value ([2]; C3-1, 0.5 uM) is reported as 0.00 and the “Quantification of eIF4E (6 hr) normalised to WT expression, Average” value ([2]; C3-1, 1 uM) is reported as 0.00. The “Quantification of eIF4E (16 hr) normalised to WT expression, Average” value ([2]; C3-1, 1 uM) was 0.00, the “Quantification of eIF4E (6 hr) normalised to WT expression, Average” value ([2]; L85R, 0.5 uM) was 51.11 and the “Quantification of eIF4E (16 hr) normalised to WT expression, Average” value ([2]; L85R, 0.5 uM) was 19.14. For the same compound, the “Quantification of eIF4E (6 hr) normalised to WT expression, Average” value ([2]; L85R, 1 uM) was 46.78, the “Quantification of eIF4E (16 hr) normalised to WT expression, Average” value ([2]; L85R, 1 uM) was 21.33 and the “Quantification of eIF4E (6 hr) normalised to WT expression, Average” value ([2]; L134R, 0.5 uM) was 32.49. The “Quantification of eIF4E (16 hr) normalised to WT expression, Average” value ([2]; L134R, 0.5 uM) was 17.61, the “Quantification of eIF4E (6 hr) normalised to WT expression, Average” value ([2]; L134R, 1 uM) was 23.94 and the “Quantification of eIF4E (16 hr) normalised to WT expression, Average” value ([2]; L134R, 1 uM) was 19.17. The “Quantification of eIF4E (6 hr) normalised to WT expression, Average” value ([2]; S209A, 0.5 uM) was 94.19, the “Quantification of eIF4E (16 hr) normalised to WT expression, Average” value ([2]; S209A, 0.5 uM) was 103.66 and the “Quantification of eIF4E (6 hr) normalised to WT expression, Average” value ([2]; S209A, 1 uM) was 88.26. The “Quantification of eIF4E (16 hr) normalised to WT expression, Average” value ([2]; S209A, 1 uM) was 106.16, the “Quantification of eIF4E (16 hr) normalised to WT expression, Average” value ([2]; W56A, 0.5 uM (Conc column empty, by row)) was 63.22 and the “Quantification of eIF4E (6 hr) normalised to WT expression, Average” value ([2]; W56A, 0.5 uM) was 56.71. For the same compound, the “Quantification of eIF4E (16 hr) normalised to WT expression, Average” value ([2]; W56A, 1 uM (Conc column empty, by row)) was 50.88, the “Quantification of eIF4E (6 hr) normalised to WT expression, Average” value ([2]; W56A, 1 uM) was 52.12 and the “Quantification of eIF4E (6 hr) normalised to WT expression, Average” value ([2]; W73F/L85R, 0.5 uM) was 30.95. The “Quantification of eIF4E (16 hr) normalised to WT expression, Average” value ([2]; W73F/L85R, 0.5 uM) was 15.77, the “Quantification of eIF4E (6 hr) normalised to WT expression, Average” value ([2]; W73F/L85R, 1 uM) was 30.11 and the “Quantification of eIF4E (16 hr) normalised to WT expression, Average” value ([2]; W73F/L85R, 1 uM) was 16.64. The “Quantification of eIF4E (6 hr) normalised to WT expression, Average” value ([2]; W73F, 0.5 uM) was 72.55, the “Quantification of eIF4E (16 hr) normalised to WT expression, Average” value ([2]; W73F, 0.5 uM) was 42.45 and the “Quantification of eIF4E (6 hr) normalised to WT expression, Average” value ([2]; W73F, 1 uM) was 71.88. The “Quantification of eIF4E (16 hr) normalised to WT expression, Average” value ([2]; W73F, 1 uM) was 30.23, the “Quantification of eIF4E (6 hr) normalised to WT expression, Average” value ([2]; WT, 0.5 uM) was 100.00 and the “Quantification of eIF4E (16 hr) normalised to WT expression, Average” value ([2]; WT, 0.5 uM) was 100.00. For the same compound, the “Quantification of eIF4E (6 hr) normalised to WT expression, Average” value ([2]; WT, 1 uM) was 100.00 and the “Quantification of eIF4E (16 hr) normalised to WT expression, Average” value ([2]; WT, 1 uM) was 100.00.
